Measurements published in patent US20080255121A1, “Combination Drug for Treating Autoimmune Disease” (DAINIPPON SUMITOMO PHARMA CO., LTD., priority 2004, published 2008).

What was measured:
EL-4 cells = experiment: IL-2 production when T-lymphocytes were stimulated with PMA and A23187; type: cell-based, mouse; conditions: Compound (I) 1 to 30 μM, KN-93 1 to 10 μM; 20 hours; FIG. 1
Description: Effects of Compound (I) and KN-93 on IL-2 production when T-lymphocytes were stimulated with Phorbol 12-myristate 13-acetate (PMA) and Calcium Ionophore A23187 were evaluated.
EL-4 cells (mouse T-lymphocyte cell line) were cultured in Dulbecco's Modified Eagle Medium (DMEM: GIBCO, Inc.) containing 10% fetal bovine serum and subjected to the experiment. The cells were disseminated in 96-well plate in a ratio of 5×10^4 cells/well and a DMEM medium containing the test substance and a DMEM medium containing PMA and A23187 as a stimulant were added and incubated for 20 hours. The concentration was adjusted so that the final concentrations of the test substances and stimulants were 1 to 30 μM for Compound (I), 1 to 10 μM for KN-93, 25 ng/ml for PMA and 250 ng/ml for A23187. The plate was centrifuged after incubation and the supernatant was collected with micropipette. The concentration of IL-2 in the supernatant was quantified by Enzyme-linked Immunosorbent Assay (ELISA) method. The quantitative method was carried out in accordance with the instructions attached to the kit (MOUSE IL-2 Immunoassay, R & D Systems).

human CaMKII γ = experiment: Examination of CaMKII inhibitory activity (2); type: biochemical
Description: (§1) Test substances were dissolved in DMSO and diluted to various concentrations with a buffer solution (50 mM Tris-HCl: pH 7.5, 10 mM MgCl2, 1 mM Dithiothreitol (DTT)) (all of them are available from Nacalai Tesque, Inc.) for CaMKII reaction. CaMKIIα (final concentration 0.75 μg/ml) (Santa Cruz, Inc.) derived from rat was mixed with Autocamtide-2® (40 μM) (CALBIOCHEM Company) dissolved in CaMKII reaction buffer solution in the presence of the test substance and with CaMKII activation buffer solution (1 mMCaCl2, 1 μM calmodulin) (Nacalai Tesque, Inc.) and the reaction was started by further adding ATP (50 μM) (Nacalai Tesque, Inc.). The reaction was performed at 30° C. for five minutes and then SDS-PAGE sample buffer solution was added and the reaction was terminated by boiling for five minutes. Proteins in the reaction mixture were separated by 15% SDS-PAGE and blotted onto a PVDF membrane. Phosphorus taken in by Autocamtide-2 was reacted with an anti-phosphorylated serine/threonine antibody (Santa Cruz, Inc.) and quantified by ECL system (Amersham, Inc.) and NIH Image (downloadable from http://rsb.info.nih.gov/nih-image/).
CaMKII γ gene was prepared by PCR method using two kinds of primers (5′-TC GGATCCAGCATGGCCACCACCGCCACCTG-3′ [SEQ ID NO 4] and 5′-TA GAATTCACACTGCAGCGGTGCGGCAGG [SEQ ID NO 5]) synthesized based on the sequence of GenBank Accession No. L07044 and cDNA derived from cultured cells (JurketT cells) prepared by a conventional method as a template. The CaMKII γ gene was excised by BamHI and EcoRI and introduced into the MCS of pFastBacl transfer vector. Expression virus was prepared and amplified based on this vector. The details followed the manual of Bac-to-Bac baculovirus expression system (Invitrogen, Inc.). Expressed CaMKII γ was purified in accordance with the method described in literature (Biochemical & Biophysical Research Communications, 173(2): 578-84, 1990). That is, expression cells were pulverized by supersonic wave and preparation was performed by affinity refinement with calmodulin sepharose (Amasham Biosciences, Inc.) from cell soluble fraction obtained by centrifugal operation via ammonium sulfate fraction of final concentration of 60%. Confirmation of expression was performed by Western blotting method using anti-CaMKII γ specific antibody, sc1541 (Santa Cruz, Inc.).
CaMKII γ inhibitory activity of test substances were measured in the same conditions as in Example 1 except human CaMKII γ prepared by the above procedure was used in place of CaMKII α derived from rat.

CaMKIIα derived from rat = biological target: T1, CaMKIIα derived from rat (Rattus norvegicus, UniProt P11275); experiment: Examination of CaMKII inhibitory activity (1), phosphorylation of Autocamtide-2; type: biochemical
T1 construct: purchased Santa Cruz, Inc
Description: as §1

L929 cells = experiment: Proliferation of fibroblasts stimulated with bFGF (Brd-U uptake); type: cell-based, mouse; conditions: Compound (I) 0.3 to 10 μM, KN-93 1 to 30 μM; FIG. 3
Description: Effects of Compound (I) and KN-93 on the proliferation of fibroblasts when the fibroblasts were stimulated with basic fibroblast growth factor (bFGF) were evaluated.
L929 cells (mouse fibroblast cell line) were cultured in MEM-Earl medium (E-MEM: GIBCO, Inc.) containing 10% fetal bovine serum and subjected to the experiment. The cells were suspended in a serum-free E-MEM and disseminated in 96-well plate in a ratio of 2×10^4 cells/well and incubated for 72 hours. An E-MEM medium containing the test substance was added and incubated for 1 hour, and an E-MEM medium containing recombinant human FGF basic (bFGF) as a stimulant was added and incubated for 20 hours. 5-Bromo2′-deoxyuridine (Brd-U) solution was added to each well and incubated at 37° C. for further four hours. The cells were fixed and uptake of Brd-U was detected by Cell proliferation ELISA system (Amersham) and absorbance at 450 nm was measured with a microplate reader. This value of absorbance was used as an index of cell proliferation.

cyclin D1 = experiment: Expression of cyclin D1 in bFGF stimulated fibroblasts (Western blotting); type: cell-based, mouse; conditions: Compound (I) 1.25 to 20 μM, KN-93 5 to 20 μM; L929 cells; FIG. 18
Description: Effects of Compound (I) and KN-93 on effect on the expression of cyclin D1 and the phosphorylation of Akt when fibroblasts were stimulated with basic fibroblast growth factor (bFGF) were evaluated.
L929 cells (mouse fibroblast cell line) were cultured in MEM-Earl medium (E-MEM: GIBCO, Inc.) containing 10% fetal bovine serum and subjected to the experiment. The cells were suspended in a serum-free E-MEM and cultured for 72 hours. An E-MEM medium containing the test substance was added and incubated for 1 hour, and an E-MEM medium containing recombinant human FGF basic (bFGF) as a stimulant was added and further incubated. The cells were lysed in a RIPA buffer and a total cell lysate was obtained. After performing SDS-PAGE, proteins were transferred onto a PVDF membrane and western blotting was performed with anti-cyclin antibody or anti-Akt antibody (both available from Santa Cruz, Inc.).

T1 sequence (P11275 whole entry): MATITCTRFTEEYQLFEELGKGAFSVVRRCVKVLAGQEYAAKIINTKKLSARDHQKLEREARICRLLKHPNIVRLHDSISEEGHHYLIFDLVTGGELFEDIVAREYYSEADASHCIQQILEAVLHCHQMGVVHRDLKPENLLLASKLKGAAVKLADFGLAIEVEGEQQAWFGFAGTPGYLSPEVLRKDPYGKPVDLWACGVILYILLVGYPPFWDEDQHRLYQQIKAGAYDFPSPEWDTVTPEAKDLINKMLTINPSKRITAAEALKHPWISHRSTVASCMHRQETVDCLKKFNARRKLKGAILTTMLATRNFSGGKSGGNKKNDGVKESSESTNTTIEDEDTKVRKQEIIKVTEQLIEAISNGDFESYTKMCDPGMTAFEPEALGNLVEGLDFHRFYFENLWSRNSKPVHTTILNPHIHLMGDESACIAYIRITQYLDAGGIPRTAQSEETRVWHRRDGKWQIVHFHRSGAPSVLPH

C[C@@H](c1ccc(-c2ccccc2)c(F)c1)c1cc(/N=C(/N)N2CCOCC2)on1 [Compound (I), 3-[(1S)-1-(2-fluorobiphenyl-4-yl)ethyl]-5-{[amino(morpholin-4-yl)methylene]amino}isoxazole]
production of IL-2 (EL-4 cells): suppressed production of IL-2 dose-dependently
concentration with an effect of inhibiting the activity of CaMKII (human CaMKII γ): ≥ 10 µM
Inhibition rate (%) (human CaMKII γ; Concentration 1 μm): 7%
Inhibition rate (%) (human CaMKII γ; Concentration 10 μm): 33%
Inhibition rate (%) (human CaMKII γ; Concentration 30 μm): 57%
Inhibition rate (%) (CaMKIIα derived from rat; Concentration 0.1 μm): 39%
Inhibition rate (%) (CaMKIIα derived from rat; Concentration 1 μm): 47%
Inhibition rate (%) (CaMKIIα derived from rat; Concentration 10 μm): 85%
proliferation of fibroblasts (L929 cells): dose-dependently suppressed the proliferation of fibroblasts
enhanced expression of cyclin D1 (cyclin D1): suppressed the enhanced expression of cyclin D1

COc1ccc(S(=O)(=O)N(CCO)c2ccccc2CN(C)C/C=C/c2ccc(Cl)cc2)cc1 [KN-93, N-(2-[N-[4-chlorocinnamyl]-N-methylaminomethyl]phenyl)-N-(2-hydroxyethyl)-4-methoxybenzenesulfonamide, reference compound]
production of IL-2 (EL-4 cells): suppressed production of IL-2 dose-dependently
concentration with an effect of inhibiting the activity of CaMKII (human CaMKII γ): ≥ 1 µM
Inhibition rate (%) (human CaMKII γ; Concentration 1 μm): 27%
Inhibition rate (%) (human CaMKII γ; Concentration 10 μm): 101%
Inhibition rate (%) (human CaMKII γ; Concentration 30 μm): 107%
Inhibition rate (%) (CaMKIIα derived from rat; Concentration 0.1 μm): 25%
Inhibition rate (%) (CaMKIIα derived from rat; Concentration 1 μm): 58%
Inhibition rate (%) (CaMKIIα derived from rat; Concentration 10 μm): 77%
proliferation of fibroblasts (L929 cells): dose-dependently suppressed the proliferation of fibroblasts
enhanced expression of cyclin D1 (cyclin D1): suppressed the enhanced expression of cyclin D1
